Assay [1] concerns P. falciparum field isolate TM346. Conditions: cited from earlier work.
In assay [2] the test system is P. falciparum field isolate TM336. Conditions: strain TM336; cited from earlier work.
For assay [3], the system named is P. falciparum field isolate TM352. Conditions: strain TM352; cited from earlier work.
Assay [4] has as its system P. falciparum field isolate PR145. Conditions: cited from earlier work.
Another assay deals with P. falciparum W2. Conditions: strain W2; cited from earlier work.
Assay [5] has as its system P. falciparum field isolate TM335. Conditions: cited from earlier work.
The test system of another assay is P. falciparum W2mef. Conditions: strain W2mef; cited from earlier work.
Assay [6] relates to W2mef parasites (resistant to mefloquine). Briefly: Mefloquine resistance reversal study, W2mef (FIGS. 2, 3, 5). Type of assay: cell-based, P. falciparum. Conditions: mefloquine alone without oligonucleotide, below threshold mefloquine concentration.

Structures are written as SMILES. In brackets after ≈: the same amount, converted by molar mass.

The IC50 is the midpoint of a concentration-inhibition curve. For the compound `CCCCN(CCCC)CCC(O)c1cc2c(Cl)cc(Cl)cc2c2cc(C(F)(F)F)ccc12` (stereo not shown) [halofantrine], the IC50 in assay [1] is 3.7 ng/mL (≈ 0.00739 µM); in assay [2], 2.8 ng/mL (≈ 0.0056 µM); in assay [3], 3.0 ng/mL (≈ 0.00599 µM); in assay [4] it was 2.0 ng/mL (≈ 0.004 µM); with P. falciparum W2, 0.3 ng/mL (≈ 0.000599 µM); in assay [5], 0.61 ng/mL (≈ 0.00122 µM).

For the compound `OC(c1cc(C(F)(F)F)nc2c(C(F)(F)F)cccc12)C1CCCCN1` (stereo not shown) [mefloquine], the IC50 in the assay on P. falciparum W2mef is 16 ng/mL (≈ 0.0423 µM); in assay [1], 20 ng/mL (≈ 0.0529 µM); in assay [2], 15 ng/mL (≈ 0.0396 µM); in assay [3], 22 ng/mL (≈ 0.0582 µM); in assay [4] it was 10 ng/mL (≈ 0.0264 µM); in the assay with P. falciparum W2 it was 2 ng/mL (≈ 0.00529 µM). Also, the IC50 in assay [5] is 6 ng/mL (≈ 0.0159 µM). Moreover, the “3H-hypoxanthine incorporated on average” value in assay [6] was 11,000 cpm.

Turning to `C=C[C@H]1C[N@@]2CC[C@H]1C[C@H]2[C@H](O)c1ccnc2ccc(OC)cc12` [quinine], the 50% inhibitory concentration (IC50) in assay [2] is 87 ng/mL (≈ 0.268 µM); in assay [3], 1.2 ng/mL (≈ 0.0037 µM); in assay [4], 90 ng/mL (≈ 0.277 µM); with P. falciparum W2 it was 74 ng/mL (≈ 0.228 µM); in assay [5] it was 65 ng/mL (≈ 0.2 µM).

(Values after US6440660B1 (priority 1995, dated 2002).)
